Reference: publication PMC11062894, “Protein-based bandpass filters for controlling cellular signaling with chemical inputs” (Nature Chemical Biology, 2023)

Test system: GEMS receptors with CBPA11 (BclXL–LD3 and BclXLhigh variants), STAT3-driven SEAP in HEK293T cells
Test: GEMS SEAP reporter assay, CBPA11 (BclXLhigh, LD3-v and BclXL-v variants) with A-1155463
Assay type: cell-based
Parameters: key to Raw data (SEAP) / SEAP, replicate values / Raw data of Figure 5b / Raw data Figure 5e / Raw data of Independent repeat of CBPA11-v1 vs CBPA11-v1-LD3v3 / Raw data of Independent repeat of CBPA11-v3 vs CBPA11-v3-LD3v3 / Raw data of Figure 5b, CBPA11-v1-LD3v3 (SEAP reporter raw value, single replicate) / Raw data of Figure 5b, CBPA11-v1 (SEAP reporter raw value, single replicate): SEAP activity in U/L in culture supernatant
Conditions: SuppFigure 9c
From the text: To rationally design a CBP responding to a chemical input, we used BclXL as the druglow receptor, LD3 as the designed binder and a designed BclXL variant as the drughigh receptor (referred to as BclXLhigh) to construct a CBP responsive to BclXL inhibitors (Fig. 4a). To design BclXLhigh, we used a multistate design computational protocol described elsewhere[26] […] Thus, BclXLhigh-v(1–3) were chosen as the functional drughigh receptors, resulting in three A-1155463-controlled CBPs (referred to as CBPA11-v(1–3)) (Fig. 4c–e).
HEK293T cells were seeded in a 96-well plate 24 h before transfection. The transfection mix in each well consisted of 3 ng of constitutive human CMV promoter driven mammalian STAT3 expression vector (PhCMV-STAT3-pA), 30 ng of STAT3-induced reporter expression (OStat3-PhCMVmin-SEAP-pA) and 50 ng of expression vectors for each GEMS receptor chain (PSV40-IgK-(drughigh receptor)-EpoRm-IL-6RBm-pA and PSV40-IgK-(druglow receptor-GGGGSX3-LD3)-EpoRm-IL-6RBm-pA). For the specific drughigh receptor and druglow receptor used in the different cellular assays, they are indicated as wild type or with mutations. Then, plasmid DNA was mixed with 50 μl opti-MEM (Thermo Fisher) and 600 ng of polyethyleneimine (Polysciences, catalog no. 24765-1). For drug treatment experiments, drugs were added 12 h post-transfection and incubated with cells for 24 h before the SEAP reporter detection assay.
SEAP activity (U l^−1) in cell culture supernatants was quantified by kinetic measurements at 405 nm (1 minute per measurement for 30 cycles) of absorbance increase due to phosphatase-mediated hydrolysis of para-nitrophenyl phosphate (pNPP).
Binding affinities of SPR drug competition assays were calculated using three-parameter nonlinear regression in GraphPad Prism (v.8.3.0). Representative data of cell assays are presented as individual values and mean values (bars). n = 3 refers to biological replicates. All IC50 or EC50 values of cell assays reported were calculated using four-parameter nonlinear regression ± s.d. Bandpass features of cutoff concentrations and Bandwidth90% were estimated based on the curve fitted using bell-shaped curve nonlinear regression in GraphPad Prism (v.8.3.0). […]
Supplementary Figure 4: Design, screening and validation of BclXLhigh variants. a) Screening of BclXLhigh variants in the GEMS platform. […]
Dissociation constant measurement of BclXLhigh-v(1-3) and LD3. Equilibrium curves are fitted using […]
BclXLhigh-v1 (purple), BclXLhigh-v2 (blue), […]
a) Bcl2high-based bandpass filter designs were developed and to respond to different concentrations of […]
corresponding inhibitor. c) Screening of Bcl2high-based bandpass filter variants in the GEMS platform.
The designed binder LD3 was fused to the druglow-receptor (PSV40-IgK-Bcl2-LD3-EpoRm-IL-6RBm-pA) in one EpoR chain and Bcl2high variants with the insensitive Bcl2 (iBcl2) as control in the other EpoR chain (PSV40-IgK-Bcl2high-EpoRm-IL-6RBm-pA). HEK293T cells were transfected with indicated […]
the mean of six biological replicates ± s.d., overlaid with a scatter dot plot of the original data points.
(1 picture or pasted object on this page, not shown here)
Supplementary Figure 6: Binding affinities and drug resistances of Bcl2high-v(2,4,5) assessed by […]
a) Measurement of dissociation constants for Bcl2high-v(2,4,5) and LD3 interactions. Equilibrium curves […]
Bcl2high-v(2,4,5) measured by SPR. 5 μM of Bcl2 or indicated variants were mixed with 10 μM of […]
Bcl2high-v2 (red), Bcl2high-v4
Supplementary Figure 7: Screening of LD3 variants in CBPA11-v(1-3) and raw data of CBPA11-v(1,3) with LD3-v3 variant. a-c) Screening of LD3 and LD3-v(1-3) variants in complex with BclXL for more sensitive CBPA11-v1 (a), CBPA11-v2 (b), CBPA11-v3 (c) in the GEMS platform. The LD3 variants replaced the role of LD3 (PSV40-IgK-BclXL-LD3-v(1-3)-EpoRm-IL-6RBm-pA) in one EpoR chain and BclXLhigh-v(1-3) in the other EpoR chain (PSV40-IgK-BclXLhigh-V(1-3)-EpoRm-IL-6RBm-pA). HEK293T cells were transfected with […]

CN(C)CC#Cc1ccc(OCCCc2sc(N3CCc4cccc(C(=O)Nc5nc6ccccc6s5)c4C3)nc2C(=O)O)c(F)c1 [A-1155463]
Raw data (SEAP) (LD3, A-1155463 316 nM): 61.2138
Normalized data (SEAP) (LD3, A-1155463 1000 nM): 55.4364
Raw data (SEAP) (LD3, A-1155463 1000 nM): 44.3919
Normalized data (SEAP) (LD3, A-1155463 3160 nM): 36.9566
Raw data (SEAP) (LD3, A-1155463 3160 nM): 29.5938
Normalized data (SEAP) (LD3, A-1155463 10000 nM): 17.181
Raw data (SEAP) (LD3, A-1155463 10000 nM): 13.758
Normalized data (SEAP) (LD3v1, A-1155463 1 nM): 5.697
Raw data (SEAP) (LD3v1, A-1155463 1 nM): 3.397
Normalized data (SEAP) (LD3v1, A-1155463 3.16 nM): 9.008
Raw data (SEAP) (LD3v1, A-1155463 3.16 nM): 5.371
Normalized data (SEAP) (LD3v1, A-1155463 10 nM): 34.145
Raw data (SEAP) (LD3v1, A-1155463 10 nM): 20.3588
Normalized data (SEAP) (LD3v1, A-1155463 31.6 nM): 55.6344
Raw data (SEAP) (LD3v1, A-1155463 31.6 nM): 33.1716
Normalized data (SEAP) (LD3v1, A-1155463 100 nM): 100
Raw data (SEAP) (LD3v1, A-1155463 100 nM): 59.6244
Normalized data (SEAP) (LD3v1, A-1155463 316 nM): 84.0823
Raw data (SEAP) (LD3v1, A-1155463 316 nM): 50.1335
Normalized data (SEAP) (LD3v1, A-1155463 1000 nM): 65.4287
Raw data (SEAP) (LD3v1, A-1155463 1000 nM): 39.0114
Normalized data (SEAP) (LD3v1, A-1155463 3160 nM): 35.6708
Raw data (SEAP) (LD3v1, A-1155463 3160 nM): 21.2685
Normalized data (SEAP) (LD3v1, A-1155463 10000 nM): 16.487
Raw data (SEAP) (LD3v1, A-1155463 10000 nM): 9.83
Normalized data (SEAP) (LD3v2, A-1155463 1 nM): 18.0278
Raw data (SEAP) (LD3v2, A-1155463 1 nM): 19.4289
Normalized data (SEAP) (LD3v2, A-1155463 3.16 nM): 13.8407
Raw data (SEAP) (LD3v2, A-1155463 3.16 nM): 14.9163
Normalized data (SEAP) (LD3v2, A-1155463 10 nM): 72.4321
Raw data (SEAP) (LD3v2, A-1155463 10 nM): 78.0614
Normalized data (SEAP) (LD3v2, A-1155463 31.6 nM): 98.2639
Raw data (SEAP) (LD3v2, A-1155463 31.6 nM): 105.901
Normalized data (SEAP) (LD3v2, A-1155463 100 nM): 100
Raw data (SEAP) (LD3v2, A-1155463 100 nM): 107.772
Normalized data (SEAP) (LD3v2, A-1155463 316 nM): 90.2158
Raw data (SEAP) (LD3v2, A-1155463 316 nM): 97.2273
Normalized data (SEAP) (LD3v2, A-1155463 1000 nM): 79.3099
Raw data (SEAP) (LD3v2, A-1155463 1000 nM): 85.4738
Normalized data (SEAP) (LD3v2, A-1155463 3160 nM): 45.5807
Raw data (SEAP) (LD3v2, A-1155463 3160 nM): 49.1232
Normalized data (SEAP) (LD3v2, A-1155463 10000 nM): 26.3886
Raw data (SEAP) (LD3v2, A-1155463 10000 nM): 28.4395
Normalized data (SEAP) (LD3v3, A-1155463 1 nM): 53.0121
Raw data (SEAP) (LD3v3, A-1155463 1 nM): 3.893
Normalized data (SEAP) (LD3v3, A-1155463 3.16 nM): 45.4436
Raw data (SEAP) (LD3v3, A-1155463 3.16 nM): 3.337
